Laboratory results taken from article PMC12669040, “Tumour-specific STING agonist synthesis via a two-component prodrug system” (Nature Chemistry, 2025).
Where “and” joins values, the source holds several entries; their conditions need not be identical. Identical values can stand only once. Like-named read-outs stand apart in the source and are kept apart here.

Key:
[1] = set-up: method as in PMID 32820094; conditions: cited from earlier work
[2] = tested on: non-tumour zebrafish larvae; experiment: Maximum tolerated concentration (MTC) on non-tumour zebrafish larvae; assay type: in vivo, zebrafish (Danio rerio)
Protocol: Extended Data Fig. 7 Additional zebrafish experiment data. a MTC of β-GlcA-N1/E4 treatments on non-tumor zebrafish larvae. […] Toxicity was assessed daily by counting the total number of dead larvae and checking for the presence of morphologic changes such cardiac edemas or curved tails. Control groups were treated with the highest matched DMSO concentration (0.04%, v/v). b Left: representative image of phagocytosis in a xenograft treated with β-GlcA-N1/E4 and β-glucuronidase at 2dpi in Tg(mpeg1:mcherry-F). Each yellow arrow indicates a phagocytic event. Right: n° of phagocytic events at 2dpi. Data are presented as mean ± SEM. Statistical analysis follows that of Fig. 5. Source data

[3] = tested on: serum cytokines; experiment: Multiplexed cytokine profiling of sera, MC38 model; assay type: in vivo, C57BL/6 mice; conditions: sera obtained on Day 9, PBS = 1
Protocol: This study used Luminex xMAP technology for multiplexed quantification of 44 mouse cytokines, chemokines and growth factors. The multiplexing analysis was performed using the Luminex 200 system (Luminex) by Eve Technologies Corp. […] markers were simultaneously measured in the samples using Eve Technologies’ Mouse Cytokine 44-Plex Discovery Assay, which consists of two separate kits, one 32-plex and one 12-plex (MilliporeSigma), following the manufacturer’s protocol. […] The sensitivities of individual analytes are available in the MilliporeSigma MILLIPLEX MAP protocol. […] MC-38 cells were inoculated into the right flank of C57BL/6 mice and treated once tumors reached about 90 mm^3. […] Source data

[4] = Haematotoxicity, CT26mβGUS model; assay type: in vivo, BALB/c mice; set-up: WBC / RBC: unit not given here
Excerpt: MCV: Mean Corpuscular Volume; MCH: Mean Corpuscular Haemoglobin; WBC: White Blood Cell Count; PLT: Platelet Count; RDW-CV: Red Cell Distribution Width - Coefficient of Variation; MPV: Mean Platelet Volume. RBC: red blood cell count; HGB: haemoglobin; HCT: haematocrit; MCV: Mean Corpuscular Volume; MCH: Mean Corpuscular Haemoglobin; WBC: White Blood Cell Count; PLT: Platelet Count; RDW-CV: Red Cell Distribution Width - Coefficient of Variation; MPV: Mean Platelet Volume. […] Source data

[5] = LC–MS/MS analysis of in situ SC2S formation (tissue distribution); assay type: in vivo, BALB/c mice; conditions: for concentration at 4 h / concentration at 2 h / concentration at 1 h: BALB/c, mouse
Protocol: The blood, tumour, lung, kidney, liver and spleen were collected for each mouse. Three mice treated with vehicle were included as control samples. Whole blood samples were centrifuged at 2,000g, 4 °C for 10 min. Supernatant plasma was aspirated into an Eppendorf tube and frozen at −80 °C. Tumour and organ tissues were snap-frozen in liquid nitrogen and stored at −80 °C until further analysis. The plasma samples (10-µl aliquots) were prepared by protein precipitation extraction. The organic layer was evaporated to dryness and reconstituted in a solution equivalent to the initial chromatographic starting conditions. The tissue samples were analysed by homogenization to give a 200 […] concentration. The homogenised tissue samples (10-µl aliquots) were then taken through the same preparation procedure as the plasma samples. All samples were analysed using the PKB Core Facility’s 6500 LC–MS/MS system, in negative ion mode. The chromatography was carried out using a gradient method on a Kinetex EVO C18 column (50 × 2.1 mm). Analysis was conducted in four batches, consisting of calibration standards, quality control samples, blank control samples, internal standard-only samples and study samples. Calibration curves were constructed using linear regression with a 1/x^2 weighting. A calibration range of 1–500 ng ml^−1 (5–2,500 ng g^−1 in tissue) was used. Precision and accuracy were well within the PK/B core facility’s acceptance criteria of ±20%. The LC–MS/MS method was developed and qualified ahead of the sample analysis. The performance of the method met normal Core Facility acceptance criteria for analysis.

[6] = tested on: THP-1 cells; experiment: Dilution limits of N1/E4 combination to activate THP-1 cells (IFN-β ELISA)
[7] = Day0, individual mice, in % (unit assumed)
[8] = Day0, individual mice, in pg (unit assumed)
[9] = Day5, individual mice, in % (unit assumed)
[10] = Day5, individual mice, in fL (unit assumed)
[11] = Day5, individual mice, in g/dL (unit assumed)

In the case of `COc1cc2cc(C(=O)CCC(=O)O)sc2cc1OC` [MSA2], the “tumour and plasma concentration after intratumoural injection” value [1] is listed as “its concentration in the tumour decreased rapidly past the 2-h timepoint, and substantial leakage into the plasma occurred”, the “MSA2 MTC, event per larva (0/1)” value ([2]; 15 μM, day 3) is listed as 0 and the “MSA2 MTC, survival event code per larva” value ([2]; 15 μM, Days 3, one cell per larva (0/1 code)) is listed as 0. For the same compound, the “MSA2 MTC, event per larva (0/1)” value ([2]; 75 μM, day 1) was 0, the “MSA2 MTC, event per larva (0/1)” value ([2]; 75 μM, day 3) was 1 and the “MSA2 MTC, survival event code per larva” value ([2]; 75 μM, Days 3, one cell per larva (0/1 code)) was 0. For the same compound, the “MSA2 MTC, survival event code per larva” value ([2]; 150 μM, Days 3, one cell per larva (0/1 code)) was 0, the CCL3 [3] was 1.442 and the CCL4 [3] was 0.7068. It also gave a CCL12 [3] of 5.215, a CXCL2 [3] of 1.851 and an EPO [3] of 1.36. The G-CSF [3] was 2.042, the IFNγ [3] was 0.4672 and the IL-1β [3] was 1.9772. It also gave an IL-3 [3] of 0.512, an IL-6 [3] of 4.186 and an IL-12p40 [3] of 0.2035. It also gave an IL-12p70 [3] of 1.442, an IL-15 [3] of 0.4244 and an IL-16 [3] of 1.895. For the same compound, the IL-17 [3] was 1.777, the M-CSF [3] was 0.6463 and the TARC [3] was 1.519. For the same compound, the HGB ([4]; Day0, individual mice) was 16.5 and 15.6 (2×) and 14.5, the MPV ([4]; Day0, individual mice) was 6.5 and 7.1 and 7.9 and the PLT ([4]; Day0, individual mice) was 1210 and 892 and 696 and 576. For the same compound, the RBC ([4]; Day0, individual mice) was 10.94 and 10.54 and 10.66 and 9.7, the RDW-CV ([4]; Day0, individual mice) was 14.4 and 15.1 (2×) and 15.3 and the WBC ([4]; Day0, individual mice) was 7.1 and 7.7 and 8.8 and 8.2. For the same compound, the HCT [4, 7] was 53.4 and 52.7 and 52.8 and 48.8, the MCV ([4]; Day0, individual mice, in fL (unit assumed)) was 48.8 and 50 and 49.5 and 50.3 and the MCH [4, 8] was 15.1 and 14.8 and 14.6 and 14.9. For the same compound, the MCH ([4]; Day5, individual mice) was 14.9 pg (3×) and 15 pg, the MPV ([4]; Day5, individual mice) was 6.6 and 7.6 (2×) and 6.8 and the PLT ([4]; Day5, individual mice) was 1244 and 920 and 808 and 855. For the same compound, the RBC ([4]; Day5, individual mice) was 10 and 8.31 and 9.87 and 7.92, the RDW-CV ([4]; Day5, individual mice) was 16 and 14.5 and 14.4 (2×) and the WBC ([4]; Day5, individual mice) was 8.6 and 8 and 9.3 and 7.4. The HCT [4, 9] was 51.7 and 43.1 and 50.2 and 40.6, the MCV [4, 10] was 51.7 and 51.9 and 50.9 and 51.3 and the HGB [4, 11] was 14.9 and 12.4 and 14.8 and 11.8. The “red blood cells, haemoglobin and haematocrit” value ([4]; MSA2 5 mg kg^−1 IT) was “modest decreases”.
In the case of `COc1cc2sc(C(=O)CCC(=O)O)cc2cc1SCCSc1cc2cc(C(=O)CCC(=O)O)sc2cc1OC` [SC2S], the “Blood Calculated Concentration” value ([5]; 1h, individual samples) is reported as “BLQ”, the “Kidney Calculated Concentration” value ([5]; 1h, individual samples) is reported as “BLQ” and the “Lung Calculated Concentration” value ([5]; 1h, individual samples) is reported as “BLQ”. The “Tumour Calculated Concentration” value ([5]; 1h, individual samples) was 64.6 ng/mL and 323 ng/g and 11.6 ng/mL and 58.1 ng/g and 12.1 ng/mL and 60.6 ng/g, the “Blood Calculated Concentration” value ([5]; 2h, individual samples) was “BLQ” and the “Liver Calculated Concentration” value ([5]; 2h, individual samples) was “BLQ”. The “Spleen Calculated Concentration” value ([5]; 2h, individual samples) was “BLQ”, the “Tumour Calculated Concentration” value ([5]; 2h, individual samples) was 17.8 ng/mL and 89.2 ng/g and 62.2 ng/mL and 311 ng/g and 4.45 ng/mL and 22.2 ng/g and the “Kidney Calculated Concentration” value ([5]; 4h, individual samples) was “BLQ”. The “Spleen Calculated Concentration” value ([5]; 4h, individual samples) was “BLQ”, the “Tumour Calculated Concentration” value ([5]; 4h, individual samples) was 12.1 ng/mL and 60.4 ng/g and 19.6 ng/mL and 98.2 ng/g and 4.66 ng/mL and 23.3 ng/g and the “Kidney Calculated Concentration” value ([5]; 8h, individual samples) was “BLQ”. The “Liver Calculated Concentration” value ([5]; 8h, individual samples) was “BLQ”, the “Spleen Calculated Concentration” value ([5]; 8h, individual samples) was “BLQ” and the “Tumour Calculated Concentration” value ([5]; 8h, individual samples) was “BLQ”. The “Kidney Calculated Concentration” value ([5]; 24h, individual samples) was “BLQ”, the “Spleen Calculated Concentration” value ([5]; 24h, individual samples) was “BLQ” and the concentration at 4 h ([5]; liver, 4h, read-out: Liver Mean concentration) was 9.3 ng/g. The concentration at 4 h ([5]; liver, other: β-GlcA-N1 intraperitoneal (IP) + E4 intratumoral (IT), 4h, individual samples, read-out: Liver Calculated Concentration) was 1.86 ng/mL and 9.3 ng/g, the concentration at 2 h ([5]; plasma, 2h, individual samples, read-out: Blood Calculated Concentration) was 3.03 ng/mL and the concentration at 2 h ([5]; plasma, 2h, read-out: Blood Mean concentration) was 3.03 ng/mL. For the same compound, the concentration at 1 h ([5]; plasma, other: β-GlcA-N1 intraperitoneal (IP) + E4 intratumoral (IT), 1h, individual samples, read-out: Blood Calculated Concentration) was 1.29 ng/mL, the concentration at 1 h ([5]; plasma, other: β-GlcA-N1 intraperitoneal (IP) + E4 intratumoral (IT), 1h, read-out: Blood Mean concentration) was 1.29 ng/mL and the concentration at 2 h ([5]; tumour, 2h, read-out: Tumour Mean concentration) was 141 ng/g. The concentration at 4 h ([5]; tumour, 4h, read-out: Tumour Mean concentration) was 60.7 ng/g, the concentration at 1 h ([5]; tumour, other: β-GlcA-N1 intraperitoneal (IP) + E4 intratumoral (IT), 1h, read-out: Tumour Mean concentration) was 147 ng/g and the “SC2S MTC, event per larva (0/1)” value ([2]; 0.62 μM, day 3) was 1. The “SC2S MTC, event per larva (0/1)” value ([2]; 3.1 μM, day 1) was 0, the “SC2S MTC, event per larva (0/1)” value ([2]; 3.1 μM, day 3) was 0 and the “SC2S MTC, survival event code per larva” value ([2]; 6.2 μM, Days 3, one cell per larva (0/1 code)) was 1. For the same compound, the “Response from SC2S, OD 450” value ([6]; 0.195312 uM) was 0.075, the “Response from SC2S, OD 450” value ([6]; 0.390625 uM) was 0.634 and the “Response from SC2S, OD 450” value ([6]; 0.78125 uM) was 1.146. The “Response from SC2S, OD 450” value ([6]; 1.5625 uM) was 2.392, the “Response from SC2S, OD 450” value ([6]; 3.125 uM) was 2.683 and the “Response from SC2S, OD 450” value ([6]; 6.25 uM) was 2.764. For the same compound, the “Response from SC2S, OD 450” value ([6]; 12.5 uM) was 2.752, the “Response from SC2S, OD 450” value ([6]; 25 uM, defined as 100% activation) was 2.757 and the MCV ([4]; Day0, individual mice) was 55 and 51.6 and 50 (2×). The MPV ([4]; Day0, individual mice) was 8 and 7.6 and 6.7 and 7.2, the PLT ([4]; Day0, individual mice) was 670 and 896 and 1143 and 870 and the RBC ([4]; Day0, individual mice) was 9.65 and 10.31 and 10.59 and 10.89. For the same compound, the WBC ([4]; Day0, individual mice) was 11 and 10 and 8.7 and 8.4, the HCT [4, 7] was 53.1 and 53.2 and 53 and 54.5 and the RDW-CV [4, 7] was 14.7 and 15.1 and 14.8 and 15. For the same compound, the HGB ([4]; Day0, individual mice, in g/dL (unit assumed)) was 14.6 and 15.3 and 15.8 and 16.3, the MCH [4, 8] was 15.1 and 14.8 and 14.9 and 15 and the MCH ([4]; Day5, individual mice) was 15.1 and 14.7 and 15.2 (2×). For the same compound, the MPV ([4]; Day5, individual mice) was 7.6 (2×) and 6.6, the PLT ([4]; Day5, individual mice) was 155 and 541 and 770 and 1292 and the RBC ([4]; Day5, individual mice) was 8.22 and 9.33 and 9.82 and 10.19. For the same compound, the WBC ([4]; Day5, individual mice) was 9.2 and 10.4 and 6.6 (2×), the HCT [4, 9] was 42 and 49.9 and 50.4 and 52 and the RDW-CV [4, 9] was 14 and 14.3 and 16.7 and 15.7. For the same compound, the MCV [4, 10] was 51.1 and 50.3 and 51.3 and 51 and the HGB [4, 11] was 12.4 and 13.7 and 14.9 and 15.5.
